Key:
Type in all cases: physicochemical
[1] = Fluorescence of the dye in pH 7.4 PBS measured on the fluorimeter; settings: pH 7.4 PBS (FIG. 9)
Method: Bis-MA was dissolved in pH 7.4 PBS and its fluorescence was measured on the fluorimeter. FIG. 9 compares Bis-MA with the Mono- and Tri-substituted HPTS derivatives.

[2] = Comparison of dyes: emission/absorbance ratio (apparent quantum yield) in pH 7.4 PBS; settings: 1 × 10^−5 M in pH 7.4 PBS
[3] = Determination of dye pKa via pH study, dye immobilized in 40% DMAA hydrogel
Method: A hydrogel was prepared containing mono-CysMA, as described previously in U.S. patent application Ser. No. 11/671,880, to evaluate the fluorescence properties (excitation (ex), emission (em) and pKa) of mono-CysMA.
A pH study was carried out with the gel.
The three polymerizable dyes were immobilized using 40% DMAA and their pKa determined via a pH study.

Structure (SMILES)	Shift of fluorescence spectrum relative to mono- and tri-substituted HPTS derivatives [1]	Absorbance [2]	Intensity at max ([2]; emission)	Ratio (“Quantum Yield”) ([2]; Em/Abs ratio, apparent quantum yield, arbitrary numbers)	pKa ([3]; dye immobilized in 40% DMAA hydrogel, polymerizable dyes immobilized using 40% DMAA, pH study)	pKa ([3]; pH study with hydrogel containing mono-CysMA (FIG. 2), HPTS given for comparison)
C=C(C)C(=O)NCCCNS(=O)(=O)c1cc(S(=O)(=O)NCCCNC(=O)C(=C)C)c2ccc3c(S(=O)(=O)[O-])cc(O)c4ccc1c2c43.[Na+] [Bis-MA]	red-shifted relative to the Mono product but blue-shifted relative to the Tri product	–	–	–	–	–
O=S(=O)(O)c1cc(O)c2ccc3c(S(=O)(=O)O)cc(S(=O)(=O)O)c4ccc1c2c34 [HPTS, 8-hydroxypyrene-1,3,6-trisulfonic acid]	–	0.1565	553	3533	7.3	7.3

Reference: US8202731B2, “HPTS-mono and bis Cys-MA polymerizable fluorescent dyes for use in analyte sensors” (Glumetrics, Inc., priority 2007, dated 2012)
